# Measurements: patent EP3431088A1, “MNTBAP FOR USE IN INDUCING A TRANSIENT IMMUNE TOLERANCE” (priority 2017, dated 2019)
# Assays:
# CD4 = CD4 cell surface expression by flow cytometry; format: cell-based, murine
# Procedure: (§1) MnTBAP (Calbiochem, San Diego, USA or Enzo Life Sciences, Farmingdale, USA) is dissolved in 75 mM NaOH to constitute a 20 mM stock solution. MnTBAP is dissolved in the complete medium, used for in vitro treatment, containing RPMI-1640 supplemented with 10% heat-inactivated fetal calf serum, 100 U/ml penicillin/streptomycin, 2 mM glutamax and 50 µM β-mercaptoethanol β-ME). Hypertonic medium, used to block clathrin dependent endocytosis, is complete medium supplemented with 0.45 M sucrose. For in vivo treatment, the stock solution is diluted with PBS and administered at 80 mg/kg intraperitoneally daily during five days. Control animals are injected with equivalent volume of PBS.
# After mechanic disruption of the spleen, erythrocytes are eliminated by hypotonic shock with ammonium chloride potassium (ACK) lysing buffer. Then CD4^+ T cells are isolated from spleen cell suspension by negative selection using a CD4^+ T cell isolation kit (Miltenyi Biotec, Paris, France) followed by auto-MACS (Miltenyi Biotec) magnetic sorting, according to the manufacturer's instructions. Purity of isolated CD4^+ T cells is usually > 95%. Cell suspensions are first incubated with anti-FcγRIII/II (Fc Block, 2.4G2, BD Biosciences, Le Pont de Claix, France) monoclonal antibodies (mAb) for 10 minutes at 4°C and then stained for 30 minutes at 4°C in PBS, 0.1% bovine serum albumin (BSA) with Fc Block present, using saturating amounts of rat anti-mouse CD4-Pacific Blue (RM4-5, BD Biosciences) mAb. Gates for CD4^+ populations are set according to isotype controls. Cell viability is determined by staining with 7-aminoactinomycin D (7-AAD; Sigma-Aldrich, St-Quentin-Fallavier, France) or Fixable Viability Dye eFluor 780 (eBiosciences, Paris, France). When indicated, samples are fixed with 1% paraformaldehyde. Samples are acquired on an LSR II flow cytometer (BD Biosciences) and data were analyzed with DIVA software (BD Biosciences).
# [1] = system: transgene-specific CD8^+ and CD4^+ T-cell responses; assay: IM rAAV gene transfer: transgene-specific T-cell responses by IFN-γ ELISPOT; format: in vivo, C57BL/6 mice; details: vs PBS
# Procedure: as §1
# Intramuscular (IM) injection: Two hours post first intraperitoneal (IP) injection of MnTBAP, mice are anesthetized by IP injection of xylazine (10 mg/kg) and ketamine (100 mg/kg) and 25 µl of a rAAV2/1 CMV SGCA HY viral preparation containing 2.5.10^9 vg is injected in the left tibialis anterior muscle (TA). Controls are injected with PBS. […] Spleens are harvested to analyze transgene-specific T cell response.
# Spleens are harvested to analyze the cellular immune anti-transgene response by T-cell cytokine response assay. Multiscreen-HA Assay System 96-well Filtration plates (Merck) are coated overnight with 2.5 µg/ml of anti-mouse IFN-γ purified mAb (eBiosciences) at 4°C, washed, and then blocked with RPMI 1640 medium (Life Technologies, Saint-Aubin, France) supplemented with 10% heat inactivated fetal bovine serum (FCS), 100U/ml penicillin/streptomycin (Thermo Fisher Scientific) and 2mM GlutaMAXTM-I (Life technologies) for 2 hours at 37°C. Plates are washed three times with RPMI 1640 medium without FCS. […] Spots are counted using an AID reader (Ceipheid Benelux, Louven, Belgium). Spot forming units (SFU) per million cells for each mouse are calculated as the average value of duplicate measures after subtraction of background values obtained with in vitro unstimulated splenocytes.
# [2] = system: humoral response against capsid; assay: Anti-rAAV1 IgG titers by ELISA after IV rAAV and readministration; format: in vivo, C57BL/6 mice; details: for specific anti-rAAV IgG: 80 mg/kg IP daily 5 days, vs control group
# Procedure: as §1
# Intravenous (IV) injection: Two hours post first IP injection of MnTBAP, mice are anesthetized by IP injection of xylazine (10 mg/kg) and ketamine (100 mg/kg) and 200 µl of a rAAV2/1 CMV SGCA HY viral preparation containing 2.5.10^9 vg is injected into retro orbital sinus or into tail vein. Controls are injected with PBS. Serum samples are harvested at D21 and D28 post vector injection to analyze capsid-specific humoral response.
# Readministration protocol: After the initial IV injection of rAAV2/1 CMV SGCA HY vector at D0 (two hours post first IP injection of MnTBAP) the second rAAV1 injection (2.10^9 vg of rAAV2/1 CMV mSeAP) is performed 28 days later in the left TA muscle. Mice are followed up to 93 days after readministration to analyze capsid-specific humoral response and to measure circulating mSeAP from serum samples. Mice are killed 93 days after second injection of vector. Left and right TA muscles are harvested for histological and enzymatic assay.
# rAAVl-specific serum antibody titers are evaluated by ELISA. […] Reaction is stopped with an H2SO4 solution and the optical density at 450 nm is determined using a […] (Discovery HT-R, BioServ, Thiais, France) with KC4 software. The area under the curve (AUC) values obtained from the optical densities at four dilution points are calculated for statistical analysis using GraphPad Prism software (Logi Labo, Paris, France).
# [3] = eight days post vector injection
smiles,measurement,setting,value
"O=C(O)c1ccc(-c2c3nc(c(-c4ccc(C(=O)O)cc4)c4ccc([n-]4)c(-c4ccc(C(=O)O)cc4)c4nc(c(-c5ccc(C(=O)O)cc5)c5ccc2[n-]5)C=C4)C=C3)cc1.[Mn+3] [MnTBAP, manganese [III] tetrakis (4-benzoic acid) porphyrin]",CD4 expression (CD4 GMFI),"CD4; 2 hours after washing out MnTBAP (""2 h removed"")",the decrease of CD4 expression is less important
same,CD4 expression (CD4 GMFI),"CD4; fixed cells, 400 µM, 2 hours (""treated"") vs ""none""",decrease of CD4 expression
same,CD4 expression,"CD4; hypertonic conditions (RPMI + 0.45 M sucrose), 400 µM, 2 hours, treated vs non-treated",no significant difference of CD4 expression
same,percentage of CD4 expression,"CD4; normal tonicity (RPMI), 400 µM, 2 hours, vs non-treated",decreased
same,CD4 expression (CD4 GMFI),"CD4; overnight after removing MnTBAP (""O/N removed"")",further less accentuated
same,CD4 at the cell surface of CD4 expressing cells,"CD4; splenic enriched CD4+ T cells, 400 µM, 2 hours, vs control",disappearance of CD4 at the cell surface
same,CD4 expression,"CD4; viable murine splenic enriched CD4+ T cells, 2 hours, 400 µM",maximal decrease of CD4 expression
same,CD4 expression,"CD4; viable murine splenic enriched CD4+ T cells, 2 hours, increasing doses 0, 100, 200, 400 µM",progressive decrease of CD4 expression
same,IFN-γ response of transgene specific CD4^+ T cells,[1]; [3],significantly decreased
same,IFN-γ response of transgene specific CD8^+ T cells,[1]; [3],no significant differences
same,IFN-γ response of transgene specific CD8^+ T cells,[1]; fifteen days post vector injection,significantly decreased
same,specific anti-rAAV IgG,[2]; Day 21 post IV vector injection,no or significantly less specific anti-rAAV IgG
same,specific anti-rAAV IgG,[2]; Day 28 post IV vector injection,no or significantly less specific anti-rAAV IgG
same,specific anti-rAAV IgG titer,"[2]; serum 10 days after vector readministration in TA (28 days post first injection), vs PBS",decrease of specific anti-rAAV IgG titer
